Reference: patent US8853281B2, “Cysteine protease inhibitors” (Medivir UK Ltd, priority 2008, dated 2014)

Assays:
Assay type in all cases: biochemical
human cathepsin L = human cathepsin L (Homo sapiens, UniProt P07711); assay: Cathepsin L Ki (H-D-Val-Leu-Lys-AMC substrate); details: human cathepsin L 5 nM, sodium acetate pH 5.5; read-out: Ki Cat. L
Method: The procedure above with the following amendments is used for the determination of Ki for cathepsin L.
The enzyme is commercially available human cathepsin L (for example Calbiochem). The substrate is H-D-Val-Leu-Lys-AMC available from Bahcem. The assay buffer is 100 mM sodium acetate 1 mM EDTA, pH5.5) The DMSO stock (10 mM in 100% DMSO) is diluted to 10% in assay buffer. Enzyme is prepared at 5 nM concentration in assay buffer plus 1 mM dithiothreitol just before use. 2 ul of 10 mM inhibitor made up in 100% DMSO is dispensed into row A. 10 μl of 50 μM substrate (= 1/200 dilution of 10 mM stock in DMSO, diluted in assay buffer).
(§1) Potential inhibitors are screened using the above assay with variable concentrations of test compound. Reactions were initiated by addition of enzyme to buffered solutions of substrate and inhibitor. Ki values were calculated according to equation 1.
(§2) [formula] where v0 is the velocity of the reaction, V is the maximal velocity, S is the concentration of substrate with Michaelis constant of KM, and I is the concentration of inhibitor.

human cathepsin S = target: T1, human cathepsin S (Homo sapiens, UniProt P25774); assay: Cathepsin S Ki determination (boc-Val-Leu-Lys-AMC fluorescent substrate); details: baculovirus-expressed human cathepsin S 2 nM, pH 6.5, competitive inhibition fit; read-out: Ki Cat. S
T1 construct: made in house; host or cells: baculovirus expression system
Method: Cathepsin S Ki Determination
The assay uses baculovirus-expressed human cathepsin S and the boc-Val-Leu-Lys-AMC fluorescent substrate available from Bachem in a 384 well plate format, in which 7 test compounds can be tested in parallel with a positive control comprising a known cathepsin S inhibitor comparator.
280 μl/well of 12.5% DMSO are added to rows B-H of two columns of a 96 deep well polypropylene plate. 70 μl/well of substrate is added to row A. 2×250 μl/well of assay buffer (100 mM Na phosphate, 100 mM NaCl, pH 6.5) is added to row A, mixed, and double diluted down the plate to row H.
100 μl/well of assay buffer is added to columns 2-5 and 7-12 of 4 rows of a 96 well V bottom polypropylene plate. 200 μl/well of assay buffer is added to columns 1 and 6.
The first test compound prepared in DMSO is added to column 1 of the top row, typically at a volume to provide between 10 and 30 times the initially determined rough Ki. The rough Ki is calculated from a preliminary run in which 10 μl/well of 1 mM boc-VLK-AMC ( 1/10 dilution of 10 mM stock in DMSO diluted into assay buffer) is dispensed to rows B to H and 20 μl/well to row A of a 96 well Microfluor™ plate. 2 μl of each 10 mM test compound is added to a separate well on row A, columns 1-10. Add 90 μl assay buffer containing 1 mM DTT and 2 nM cathepsin S to each well of rows B-H and 180 μl to row A. Mix row A using a multichannel pipette and double dilute to row G. Mix row H and read in the fluorescent spectrophotometer. The readings are Prism data fitted to the competitive inhibition equation, setting S=100 μM and KM=100 μM to obtain an estimate of the Ki, up to a maximum of 100 μM.
The second test compound is added to column 6 of the top row, the third to column 1 of the second row etc. Add 1 μl of comparator to column 6 of the bottom row. Mix column 1 and double dilute to column 5. Mix column 6 and double dilute to column 10.
Using an 8-channel multistepping pipette set to 5×10 μl, distribute 10 μl/well of substrate to the 384 well assay plate. Distribute the first column of the substrate dilution plate to all columns of the assay plate starting at row A. The tip spacing of the multichannel pipette will correctly skip alternate rows. Distribute the second column to all columns starting at row B.
Using a 12-channel multistepping pipette set to 4×10 μl, distribute 10 μl/well of inhibitor to the 384 well assay plate. Distribute the first row of the inhibitor dilution plate to alternate rows of the assay plate starting at A1. The tip spacing of the multichannel pipette will correctly skip alternate columns. Similarly, distribute the second, third and fourth rows to alternate rows and columns starting at A2, B1 and B2 respectively.
Mix 20 ml assay buffer and 20 μl 1M DTT. Add sufficient cathepsin S to give 2 nM final concentration.
Using the a distributor such as a Multidrop 384, add 30 μl/well to all wells of the assay plate and read in fluorescent spectrophotomoter such as an Ascent.
Fluorescent readings, (excitation and emission wavelengths 390 nm and 460 nm respectively, set using bandpass filters) reflecting the extent of enzyme cleavage of the fluorescent substrate, […] the inhibitor, are linear rate fitted for each well.
Fitted rates for all wells for each inhibitor are fitted to the competitive inhibition equation using SigmaPlot 2000 to determine V, Km and Ki values.
as §1, §2

cathepsin K = target: T2, cathepsin K (Homo sapiens, UniProt P43235); assay: Determination of cathepsin K proteolytic catalytic activity (H-D-Ala-Leu-Lys-AMC fluorogenic substrate); details: human recombinant enzyme 5 nM, ambient temperature; read-out: Ki Cat. K
T2 construct: made in house; host or cells: not fixed: E coli, Pichia or Baculovirus systems named as options
T2 sequence (P43235 115-329): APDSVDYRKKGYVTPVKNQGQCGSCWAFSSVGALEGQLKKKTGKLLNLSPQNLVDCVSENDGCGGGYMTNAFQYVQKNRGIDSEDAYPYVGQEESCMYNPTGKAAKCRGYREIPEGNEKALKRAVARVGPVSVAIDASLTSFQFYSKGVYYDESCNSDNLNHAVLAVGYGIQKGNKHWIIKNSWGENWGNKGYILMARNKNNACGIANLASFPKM
Method: Determination of Cathepsin K Proteolytic Catalytic Activity
Convenient assays for cathepsin K are carried out using human recombinant enzyme, such as that described in PDB.
DE Homo sapiens cathepsin K (pycnodysostosis), mRNA (cDNA clone MGC:23107
The recombinant cathepsin K can be expressed in a variety of commercially available expression systems including E coli, Pichia and Baculovirus systems. The purified enzyme is activated by removal of the prosequence by conventional methods.
Standard assay conditions for the determination of kinetic constants used a fluorogenic peptide substrate, typically H-D-Ala-Leu-Lys-AMC, and were determined in either 100 mM Mes/Tris, pH 7.0 containing 1 mM EDTA and 10 mM 2-mercaptoethanol or 100 mMNa phosphate, imM EDTA, 0.1% PEG4000 pH 6.5 or 100 mM Na acetate, pH 5.5 containing 5 mM EDTA and 20 mM cysteine, in each case optionally with […] as stabiliser. The enzyme concentration used was 5 nM. The stock substrate solution was prepared at 10 mM in DMSO. Screens were carried out at a fixed substrate concentration of 60 μM and detailed kinetic studies with doubling dilutions of substrate from 250 μM. The total DMSO concentration in the assay was kept below 3%. All assays were conducted at ambient temperature. Product fluorescence (excitation at 390 nm, emission at 460 nm) was monitored with a Labsystems Fluoroskan Ascent fluorescent plate reader. Product progress curves were generated over 15 minutes following generation of AMC product.
as §1, §2

T1 sequence (P25774 115-331): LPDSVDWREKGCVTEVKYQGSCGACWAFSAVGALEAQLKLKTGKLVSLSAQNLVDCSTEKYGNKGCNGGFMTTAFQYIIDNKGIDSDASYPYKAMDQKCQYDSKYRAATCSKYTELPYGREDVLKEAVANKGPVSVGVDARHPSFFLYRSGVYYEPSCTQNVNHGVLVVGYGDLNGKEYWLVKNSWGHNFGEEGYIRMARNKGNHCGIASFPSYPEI
human cathepsin L, sequence (P07711 114-333): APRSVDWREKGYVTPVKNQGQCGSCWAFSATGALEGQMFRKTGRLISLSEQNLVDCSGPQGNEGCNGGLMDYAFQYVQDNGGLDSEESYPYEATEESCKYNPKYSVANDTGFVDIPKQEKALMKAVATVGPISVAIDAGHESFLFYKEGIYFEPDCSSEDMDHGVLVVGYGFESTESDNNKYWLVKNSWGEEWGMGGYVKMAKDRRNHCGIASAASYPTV

SMILES | Ki (human cathepsin L) [nM] | Ki (human cathepsin S) [nM] | Ki (cathepsin K) [nM]
CC1(C[C@H](NC(=O)N2CCOCC2)C(=O)NC2(C(=O)C(=O)NCCCCl)CCC2)CCCC1 [Example 35] | 6300 | 2 | 3500
CC1(C[C@H](NC(=O)c2ccoc2)C(=O)NC2(C(=O)C(=O)NC3CC3)CC(F)(F)C2)CCCC1 [Example 27] | 12000 | 0.79 | 2300
CNC(=O)C(=O)C1(NC(=O)[C@H](CC(C)(C)C)NC(=O)c2ccc(NS(=O)(=O)c3ccccc3)cc2)CCC1 [Example 75] | 14000 | 0.59 | 310
CC1(C[C@H](NC(=O)N2CCOCC2)C(=O)NC2(C(=O)C(=O)NC3CC3)CCC2)CCCC1 [Example 2] | 7100 | 2.3 | 3500

Now those with a lower Ki (human cathepsin L), led by results:

Ki (human cathepsin L) [nM] | Ki (human cathepsin S) [nM] | Ki (cathepsin K) [nM] | SMILES
3800 | 3.9 | 1000 | COC1CC(NC(=O)C(CC2(C)CCC2)NC(=O)N2CCOCC2)(C(=O)C(=O)NC2CC2)C1 (single isomer, unassigned) [Example 122]
3100 | 1 | 2400 | O=C(NC1CC1)C(=O)C1(NC(=O)[C@H](CC2(F)CCCC2)NC(=O)c2ccc(O)c(F)c2)CC(F)(F)C1 [Example 50, N-[1-(1-Cyclopropylaminooxalyl-3,3-difluoro-cyclobutylcarbamoyl)-2-(1-fluoro-cyclopentyl)-ethyl]-3-fluoro-4-hydroxy-benzamide]
1700 | 0.24 | 360 | Cn1ccc(NC(=O)C(=O)C2(NC(=O)[C@H](CC3(C)CCCC3)NC(=O)C3CC3)CC(F)C2)n1 (stereo partly drawn) [Example 60]
1500 | 0.35 | 180 | Cn1ccc(NC(=O)C(=O)[C@]2(NC(=O)[C@H](CC3(C)CCCC3)NC(=O)N3CCCC3)C[C@H](F)C2)n1 [Example 123, Pyrrolidine-1-carboxylic Acid [1-[3-fluoro-1-(1-methyl-1H-pyrazol-3-ylaminooxalyl)-cyclobutylcarbamoyl]-2-(1-methyl-cyclopentyl)-ethyl]-amide]
600 | 0.19 | 460 | Cn1ccc(NC(=O)C(=O)C2(NC(=O)[C@H](CC3(C)CCCC3)NC(=O)N3CCOCC3)CCC2)n1 [Example 6]
200 | 0.65 | 3600 | Cn1ccc(NC(=O)C(=O)C2(NC(=O)[C@H](CC3CCCCC3)NC(=O)N3CCOCC3)CC(F)(F)C2)n1 [Example 111]
